Measured values as given in patent US7741350B1 (Cara Therapeutics, Inc., priority 2009, dated 2010).

Experiments:
[1] = biological target: human CB1 receptor (hCB1) (Homo sapiens, UniProt P21554); test: cAMP assay at human CB1 receptor; format: cell-based; settings: hCB1R; maximum measurable range 30 μM; read-out: EC50 (Potency at Human CB1 determined by cAMP Assay)
How it was run: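 Changes in intracellular cAMP measured by TR-FRET (665/615 nm) in forskolin-stimulated cells; cAMP read from a concurrent standard curve. Values normalised between forskolin and forskolin plus 1 μM CP55,940 wells. EC50 and intrinsic activity relative to CP55,940 from four-parameter nonlinear regression.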

[2] = biological target: human CB2 receptor (hCB2) (Homo sapiens, UniProt P34972); test: cAMP assay at human CB2 receptor; format: cell-based; settings: EC50 (Potency at Human CB2 determined by cAMP Assay), hCB2R; maximum measurable range 30 μM
How it was run: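 Values expressed as percent of the window between forskolin-stimulated wells and forskolin plus 1 μM CP55,940 wells.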

[3] = tested on: Male ICR mice; test: Inhibition of acetic acid-induced writhing in mice; format: in vivo, mouse; settings: dose of 10 mg/kg, subcutaneous 30 min before acetic acid
Text: 12: 525-562; Ramabadran and Bansinath (1986) Pharm. Res. 3: 263-270]. Intraperitoneal administration of dilute acetic acid solution causes a writhing behavior in mice. A writhe is defined as a contraction of the abdominal muscles accompanied by an extension of the forelimbs and elongation of the body. The number of writhes observed in the presence and absence of test compounds is counted to determine the analgesic activity of the compounds.
Male ICR mice, 20-40 grams in weight, were weighed and placed in individual observation chambers (usually a 4 L beaker) with a fine layer of rodent bedding at the bottom. To determine the activity and potency of test compounds, different doses of the compound solution or vehicle were injected subcutaneously in the back of the neck 30 minutes prior to administration of acetic acid solution. After administration of the compound or vehicle control, mice were returned to their individual observation chambers awaiting the intraperitoneal administration of acetic acid solution.
Thirty minutes later, 10 ml/kg of a 0.6% (v/v) acetic acid solution was then injected into the right lower quadrant of the abdomen. Immediately after the injection, the mouse was returned to its observation chamber and the recording of the number of writhes is begun immediately. The number of writhes was counted over a 15-min period starting from the time of acetic acid injection. Raw data were analyzed using a one-way ANOVA followed by Dunnett's post-tests.
For dose-response analysis, raw data were converted to % maximum possible effect (% MPE) using the formula: % MPE=((Wc−Wv)/(0−Wv))*100, where Wc is the number of writhes in compound-treated mice and Wv is the mean number of writhes in vehicle-treated mice. The dose which elicited 50% attenuation of hypersensitivity (ED50) can be determined using linear regression analysis. (Tallarida & Murray, 1987).

Sequence of human CB2 receptor (hCB2) (P34972 whole entry): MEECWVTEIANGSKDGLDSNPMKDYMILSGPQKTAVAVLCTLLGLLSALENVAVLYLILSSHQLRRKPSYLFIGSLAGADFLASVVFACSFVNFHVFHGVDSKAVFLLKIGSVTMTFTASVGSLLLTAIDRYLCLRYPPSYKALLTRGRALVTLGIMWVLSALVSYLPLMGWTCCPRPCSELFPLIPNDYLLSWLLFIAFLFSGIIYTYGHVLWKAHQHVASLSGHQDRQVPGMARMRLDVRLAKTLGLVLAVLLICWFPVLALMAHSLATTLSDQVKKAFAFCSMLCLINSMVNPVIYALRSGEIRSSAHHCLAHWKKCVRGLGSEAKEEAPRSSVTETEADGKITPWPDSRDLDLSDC
Sequence of human CB1 receptor (hCB1) (P21554 whole entry): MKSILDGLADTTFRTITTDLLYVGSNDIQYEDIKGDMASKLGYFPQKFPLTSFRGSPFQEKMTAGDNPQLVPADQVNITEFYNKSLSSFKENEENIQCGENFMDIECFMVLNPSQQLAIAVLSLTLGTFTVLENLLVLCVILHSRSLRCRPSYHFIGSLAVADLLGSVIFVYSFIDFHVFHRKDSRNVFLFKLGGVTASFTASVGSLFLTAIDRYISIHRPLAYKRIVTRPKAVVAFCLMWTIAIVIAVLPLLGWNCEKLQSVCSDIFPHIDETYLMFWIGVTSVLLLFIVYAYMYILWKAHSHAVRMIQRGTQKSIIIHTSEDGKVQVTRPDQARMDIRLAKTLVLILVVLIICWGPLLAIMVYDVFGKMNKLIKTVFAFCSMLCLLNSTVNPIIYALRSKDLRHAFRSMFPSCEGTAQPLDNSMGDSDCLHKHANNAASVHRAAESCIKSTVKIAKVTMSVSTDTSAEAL

In the case of `CC(C)(C)[C@H](NC(=O)n1nc(-c2cc(F)c(F)cc2F)c2c1CCOC2)C(=O)NCCO` [Compound 35, (S)—N-(1-(2-hydroxyethylamino)-3,3-dimethyl-1-oxobutan-2-yl)-3-(2,4,5-trifluorophenyl)-6,7-dihydropyrano[4,3-c]pyrazole-1(4H)-carboxamide], the EC50 [1] is reported as under 1000 nM, the EC50 [2] is reported as under 1000 nM and the “reversal of the mechanical hyperalgesia induced by the acetic acid treatment” value (“reversal” for short) [3] is reported as 100%.
For `CNC(=O)[C@@H](NC(=O)n1nc(-c2cc(F)c(F)cc2F)c2c1CCN(C)C2)C(C)(C)C` [Compound 37, (S)—N-(3,3-dimethyl-1-(methylamino)-1-oxobutan-2-yl)-5-methyl-3-(2,4,5-trifluorophenyl)-4,5,6,7-tetrahydro-1H-pyrazolo[4,3-c]pyridine-1-carboxamide], the EC50 [1] was under 1000 nM, the EC50 [2] was under 1000 nM and the “reversal” value [3] was 100%.
In the case of `CNC(=O)[C@@H](NC(=O)n1nc(-c2ccc(F)c(F)c2)c2c1CCOC2)C(C)(C)C` [Compound 28, (S)-3-(3,4-difluorophenyl)-N-(3,3-dimethyl-1-(methyl-amino)-1-oxobutan-2-yl)-6,7-dihydropyrano[4,3-c]pyrazole-1(4H)-carboxamide], the EC50 [1] is reported as under 1000 nM, the EC50 [2] is reported as under 1000 nM and the “reversal” value [3] is reported as 100%.
